{
  "source": "patent US7479483B2",
  "about": "“Tumor-targeted drug delivery systems and uses thereof” (G. Gaslini Children's Hospital, priority 2003, dated 2009)",
  "test_system": "SH-SY5Y adrenal tumors",
  "test": "In vivo therapeutic studies, orthotopic neuroblastoma xenograft",
  "design": "species or system SCID mice",
  "conditions": "orthotopic SH-SY5Y model; free DXR by standard or metronomic dosing",
  "procedure": "Five-week-old female SCID mice were purchased from Harlan Laboratories (Harlan Italy-S. Pietro al Natisone, UD). Mice (6-8 mice/group) were anaesthetised and injected with the different NB cell lines (2.5×10^6 cells in 20 μl of HEPES buffer), after laparatomy, in the capsule of the left adrenal gland. […] Mice were monitored at least two times weekly for evidence of tumor development, tumor size was quantified, and evidence of tumor-associated morbidity was noted.\n2.5×10^6 SH-SY5Y cells were injected orthotopically in the left adrenal gland of mice. […] At various time-points, mice were sacrificed and tumors were measured with calipers. Tumor volumes were calculated by the formula π/6 [w1× (w2)^2], where w1 represented the largest tumor diameter and w2 represented the smallest tumor diameter. The body weight and general physical status of the animals were recorded daily and the mice were terminated when tumor reached 1000-1200 mm^3. […] Weight due to tumor burden was calculated by subtracting the normal wet organ weight from each tumor-bearing organ. In some experiments, mice were monitored routinely for weight loss, and survival times were used as the main criterion for determining treatment efficacy.\nThe statistical significance of differential findings between experimental groups and controls was determined by Student's t-test and considered significant if two-tailed P values were <0.05. […]",
  "data": [
    {"molecule": "COc1cccc2c1C(=O)c1c(O)c3c(c(O)c1C2=O)C[C@@](O)(C(=O)CO)C[C@@H]3O[C@H]1C[C@H](N)[C@H](O)[C@H](C)O1", "note": "[free DXR, doxorubicin]", "values": [
      {"measurement": "therapeutic effect", "result": "lack of therapeutic effect"}
    ]}
  ]
}
